Activity calls are given as the source filed them. No cut-off for these calls is given here.
Key:
[1] = biological target: Epidermal growth factor receptor (Homo sapiens, UniProt P00533); assay type: cell-based
[2] = biological target: T1, Vascular endothelial growth factor receptor 2 (Homo sapiens, UniProt P35968); assay type: cell-based
[3] = biological target: T2, Platelet-derived growth factor receptor beta (Homo sapiens, UniProt P09619); test: Inhibition of PDGF-BB-induced PDGFRbeta activation in human SH-SY5Y cells pretreated for 60 mins followed by PDGF-BB addition and measured after 10 mins by ELISA; assay type: cell-based
T2 sequence (P09619 whole entry): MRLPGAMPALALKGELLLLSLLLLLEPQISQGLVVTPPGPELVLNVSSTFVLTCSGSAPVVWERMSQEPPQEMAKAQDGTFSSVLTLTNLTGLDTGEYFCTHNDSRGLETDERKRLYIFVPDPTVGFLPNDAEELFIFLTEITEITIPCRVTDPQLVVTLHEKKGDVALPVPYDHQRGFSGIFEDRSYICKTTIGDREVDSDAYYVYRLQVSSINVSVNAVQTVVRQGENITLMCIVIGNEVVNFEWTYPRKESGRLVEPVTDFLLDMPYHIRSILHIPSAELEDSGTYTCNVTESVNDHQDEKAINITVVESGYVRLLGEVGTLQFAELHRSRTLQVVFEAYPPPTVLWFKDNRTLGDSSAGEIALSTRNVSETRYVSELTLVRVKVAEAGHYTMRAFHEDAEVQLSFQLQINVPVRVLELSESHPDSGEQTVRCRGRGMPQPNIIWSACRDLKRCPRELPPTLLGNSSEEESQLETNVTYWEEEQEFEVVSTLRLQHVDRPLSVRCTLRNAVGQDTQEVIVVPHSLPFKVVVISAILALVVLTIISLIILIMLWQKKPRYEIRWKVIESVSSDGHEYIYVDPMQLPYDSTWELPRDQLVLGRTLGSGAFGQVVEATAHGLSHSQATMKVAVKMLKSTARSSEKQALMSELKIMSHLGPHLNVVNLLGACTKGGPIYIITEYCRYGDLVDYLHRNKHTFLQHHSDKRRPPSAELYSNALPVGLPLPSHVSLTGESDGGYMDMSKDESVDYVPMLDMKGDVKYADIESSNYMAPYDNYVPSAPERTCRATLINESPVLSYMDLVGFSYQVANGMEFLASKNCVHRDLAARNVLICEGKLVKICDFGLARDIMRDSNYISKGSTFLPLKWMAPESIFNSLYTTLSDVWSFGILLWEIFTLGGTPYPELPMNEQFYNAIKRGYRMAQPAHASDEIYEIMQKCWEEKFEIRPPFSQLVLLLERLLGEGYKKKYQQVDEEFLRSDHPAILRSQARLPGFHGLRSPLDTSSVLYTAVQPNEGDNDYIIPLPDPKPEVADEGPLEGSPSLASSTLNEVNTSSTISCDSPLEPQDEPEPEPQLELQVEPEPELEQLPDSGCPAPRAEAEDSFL

[4] = test system: A-431; test: Cytotoxicity against human A431 cells over-expressing EGFR; assay type: functional, cell-based
[5] = test system: Chorioallantoic membrane; test: Antiangiogenic activity in Leghorn chicken embryo chorioallantoic membrane after 40 hrs by microscopic analysis; assay type: functional, tissue-based; conditions: Gallus gallus
[6] = biological target: T1, Vascular endothelial growth factor receptor 2; test: Potency index, ratio of sunitinib IC50 to test compound IC50 for VEGF-induced VEGFR2 activation in human U251 cells; assay type: cell-based
[7] = biological target: T2, Platelet-derived growth factor receptor beta; test: Potency index, ratio of sunitinib IC50 to test compound IC50 for PDGF-BB-induced PDGFRbeta activation in human SH-SY5Y cells; assay type: cell-based
[8] = test system: Mus musculus; test: Toxicity in athymic nude mouse assessed as survival at 12.5 to 50 mg/kg, po administered as single dose; assay type: organism-based; conditions: in vivo
[9] = test system: Mus musculus; test: Toxicity in athymic nude mouse assessed as death at 100 mg/kg, po administered as single dose measured after 4 days; assay type: organism-based; conditions: in vivo, 96 h
[10] = test system: Mus musculus; test: Toxicity in athymic nude mouse assessed as death at 250 to 500 mg/kg, po administered as single dose measured after 1 day; assay type: organism-based; conditions: in vivo, 24 h
[11] = test system: A498; test: Antitumor activity against human A498 cells xenografted in athymic nude mouse assessed as reduction in tumor volume at 25 mg/kg, ip qd for 19 days measured post last dose up to 40 days; assay type: functional; set-up: scale not given: the % may be the effect or the level left
[12] = test system: A498; test: Antitumor activity against human A498 cells xenografted in athymic nude mouse assessed as reduction in tumor volume at 25 mg/kg, ip q2d for 19 days measured post last dose up to 40 days; assay type: functional; set-up: scale not given: the % may be the effect or the level left
[13] = test system: A498; test: Antitumor activity against human A498 cells xenografted in athymic nude mouse assessed as reduction in tumor volume at 25 mg/kg, ip q3d for 19 days measured post last dose up to 40 days; assay type: functional; set-up: scale not given: the % may be the effect or the level left
[14] = test system: Mus musculus; test: Toxicity in athymic nude mouse xenografted with human A498 cells assessed as body weight at 25 mg/kg, ip qd for 19 days measured post last dose relative to control; assay type: organism-based; conditions: in vivo, 456 h
[15] = test system: Mus musculus; test: Toxicity in athymic nude mouse xenografted with human A498 cells assessed as body weight at 25 mg/kg, ip q2d for 19 days measured post last dose relative to control; assay type: organism-based; conditions: in vivo, 456 h
[16] = test system: Mus musculus; test: Toxicity in athymic nude mouse xenografted with human A498 cells assessed as body weight at 25 mg/kg, ip q3d for 19 days measured post last dose relative to control; assay type: organism-based; conditions: in vivo, 456 h
[17] = test system: NCI-H522; test: Antitumor activity against human NCI-H522 cells xenografted in athymic nude mouse; assay type: functional, cell-based
[18] = test system: COLO 205; test: Antitumor activity against human COLO205 cells xenografted in athymic nude mouse; assay type: functional, cell-based
[19] = test system: NCI-H23; test: Antitumor activity against human NCI-H23 cells xenografted in sc dosed mouse assessed as reduction in cell viability administered daily for 4 days starting from 3 to 4 days post implantation measured post last dose by MTT based in-vivo hollow fiber assay; assay type: functional, organism-based
[20] = test system: NCI-H522; test: Antitumor activity against human NCI-H522 cells xenografted in sc dosed mouse assessed as reduction in cell viability administered daily for 4 days starting from 3 to 4 days post implantation measured post last dose by MTT based in-vivo hollow fiber assay; assay type: functional, organism-based
[21] = test system: MDA-MB-231; test: Antitumor activity against human MDA-MB-231 cells xenografted in sc dosed mouse assessed as reduction in cell viability administered daily for 4 days starting from 3 to 4 days post implantation measured post last dose by MTT based in-vivo hollow fiber assay; assay type: functional, organism-based
[22] = test system: SW-620; test: Antitumor activity against human SW620 cells xenografted in sc dosed mouse assessed as reduction in cell viability administered daily for 4 days starting from 3 to 4 days post implantation measured post last dose by MTT based in-vivo hollow fiber assay; assay type: functional, organism-based
[23] = test system: COLO 205; test: Antitumor activity against human COLO205 cells xenografted in sc dosed mouse assessed as reduction in cell viability administered daily for 4 days starting from 3 to 4 days post implantation measured post last dose by MTT based in-vivo hollow fiber assay; assay type: functional, organism-based
[24] = test system: MDA-MB-435; test: Antitumor activity against human MDA-MB-435 cells xenografted in sc dosed mouse assessed as reduction in cell viability administered daily for 4 days starting from 3 to 4 days post implantation measured post last dose by MTT based in-vivo hollow fiber assay; assay type: functional, organism-based
[25] = test system: Homo sapiens; test: Antitumor activity against human LOX cells xenografted in sc dosed mouse assessed as reduction in cell viability administered daily for 4 days starting from 3 to 4 days post implantation measured post last dose by MTT based in-vivo hollow fiber assay; assay type: functional, organism-based
[26] = test system: UACC-62; test: Antitumor activity against human UACC62 cells xenografted in sc dosed mouse assessed as reduction in cell viability administered daily for 4 days starting from 3 to 4 days post implantation measured post last dose by MTT based in-vivo hollow fiber assay; assay type: functional, organism-based
[27] = test system: OVCAR-3; test: Antitumor activity against human OVCAR3 cells xenografted in sc dosed mouse assessed as reduction in cell viability administered daily for 4 days starting from 3 to 4 days post implantation measured post last dose by MTT based in-vivo hollow fiber assay; assay type: functional, organism-based
[28] = test system: OVCAR-5; test: Antitumor activity against human OVCAR5 cells xenografted in sc dosed mouse assessed as reduction in cell viability administered daily for 4 days starting from 3 to 4 days post implantation measured post last dose by MTT based in-vivo hollow fiber assay; assay type: functional, organism-based
[29] = test system: U-251; test: Antitumor activity against human U251 cells xenografted in sc dosed mouse assessed as reduction in cell viability administered daily for 4 days starting from 3 to 4 days post implantation measured post last dose by MTT based in-vivo hollow fiber assay; assay type: functional, organism-based
[30] = test system: SF-295; test: Antitumor activity against human SF295 cells xenografted in sc dosed mouse assessed as reduction in cell viability administered daily for 4 days starting from 3 to 4 days post implantation measured post last dose by MTT based in-vivo hollow fiber assay; assay type: functional, organism-based
[31] = test system: NCI-H23; test: Antitumor activity against human NCI-H23 cells xenografted in ip dosed mouse assessed as reduction in cell viability administered daily for 4 days starting from 3 to 4 days post implantation measured post last dose by MTT based in-vivo hollow fiber assay; assay type: functional, organism-based
[32] = test system: NCI-H522; test: Antitumor activity against human NCI-H522 cells xenografted in ip dosed mouse assessed as reduction in cell viability administered daily for 4 days starting from 3 to 4 days post implantation measured post last dose by MTT based in-vivo hollow fiber assay; assay type: functional, organism-based
[33] = test system: MDA-MB-231; test: Antitumor activity against human MDA-MB-231 cells xenografted in ip dosed mouse assessed as reduction in cell viability administered daily for 4 days starting from 3 to 4 days post implantation measured post last dose by MTT based in-vivo hollow fiber assay; assay type: functional, organism-based
[34] = test system: SW-620; test: Antitumor activity against human SW620 cells xenografted in ip dosed mouse assessed as reduction in cell viability administered daily for 4 days starting from 3 to 4 days post implantation measured post last dose by MTT based in-vivo hollow fiber assay; assay type: functional, organism-based
[35] = test system: COLO 205; test: Antitumor activity against human COLO205 cells xenografted in ip dosed mouse assessed as reduction in cell viability administered daily for 4 days starting from 3 to 4 days post implantation measured post last dose by MTT based in-vivo hollow fiber assay; assay type: functional, organism-based
[36] = test system: MDA-MB-435; test: Antitumor activity against human MDA-MB-435 cells xenografted in ip dosed mouse assessed as reduction in cell viability administered daily for 4 days starting from 3 to 4 days post implantation measured post last dose by MTT based in-vivo hollow fiber assay; assay type: functional, organism-based
[37] = test system: Homo sapiens; test: Antitumor activity against human LOX cells xenografted in ip dosed mouse assessed as reduction in cell viability administered daily for 4 days starting from 3 to 4 days post implantation measured post last dose by MTT based in-vivo hollow fiber assay; assay type: functional, organism-based
[38] = test system: UACC-62; test: Antitumor activity against human UACC62 cells xenografted in ip dosed mouse assessed as reduction in cell viability administered daily for 4 days starting from 3 to 4 days post implantation measured post last dose by MTT based in-vivo hollow fiber assay; assay type: functional, organism-based
[39] = test system: OVCAR-3; test: Antitumor activity against human OVCAR3 cells xenografted in ip dosed mouse assessed as reduction in cell viability administered daily for 4 days starting from 3 to 4 days post implantation measured post last dose by MTT based in-vivo hollow fiber assay; assay type: functional, organism-based
[40] = test system: OVCAR-5; test: Antitumor activity against human OVCAR5 cells xenografted in ip dosed mouse assessed as reduction in cell viability administered daily for 4 days starting from 3 to 4 days post implantation measured post last dose by MTT based in-vivo hollow fiber assay; assay type: functional, organism-based
[41] = test system: U-251; test: Antitumor activity against human U251 cells xenografted in ip dosed mouse assessed as reduction in cell viability administered daily for 4 days starting from 3 to 4 days post implantation measured post last dose by MTT based in-vivo hollow fiber assay; assay type: functional, organism-based
[42] = test system: SF-295; test: Antitumor activity against human SF295 cells xenografted in ip dosed mouse assessed as reduction in cell viability administered daily for 4 days starting from 3 to 4 days post implantation measured post last dose by MTT based in-vivo hollow fiber assay; assay type: functional, organism-based

T1 sequence (P35968 whole entry): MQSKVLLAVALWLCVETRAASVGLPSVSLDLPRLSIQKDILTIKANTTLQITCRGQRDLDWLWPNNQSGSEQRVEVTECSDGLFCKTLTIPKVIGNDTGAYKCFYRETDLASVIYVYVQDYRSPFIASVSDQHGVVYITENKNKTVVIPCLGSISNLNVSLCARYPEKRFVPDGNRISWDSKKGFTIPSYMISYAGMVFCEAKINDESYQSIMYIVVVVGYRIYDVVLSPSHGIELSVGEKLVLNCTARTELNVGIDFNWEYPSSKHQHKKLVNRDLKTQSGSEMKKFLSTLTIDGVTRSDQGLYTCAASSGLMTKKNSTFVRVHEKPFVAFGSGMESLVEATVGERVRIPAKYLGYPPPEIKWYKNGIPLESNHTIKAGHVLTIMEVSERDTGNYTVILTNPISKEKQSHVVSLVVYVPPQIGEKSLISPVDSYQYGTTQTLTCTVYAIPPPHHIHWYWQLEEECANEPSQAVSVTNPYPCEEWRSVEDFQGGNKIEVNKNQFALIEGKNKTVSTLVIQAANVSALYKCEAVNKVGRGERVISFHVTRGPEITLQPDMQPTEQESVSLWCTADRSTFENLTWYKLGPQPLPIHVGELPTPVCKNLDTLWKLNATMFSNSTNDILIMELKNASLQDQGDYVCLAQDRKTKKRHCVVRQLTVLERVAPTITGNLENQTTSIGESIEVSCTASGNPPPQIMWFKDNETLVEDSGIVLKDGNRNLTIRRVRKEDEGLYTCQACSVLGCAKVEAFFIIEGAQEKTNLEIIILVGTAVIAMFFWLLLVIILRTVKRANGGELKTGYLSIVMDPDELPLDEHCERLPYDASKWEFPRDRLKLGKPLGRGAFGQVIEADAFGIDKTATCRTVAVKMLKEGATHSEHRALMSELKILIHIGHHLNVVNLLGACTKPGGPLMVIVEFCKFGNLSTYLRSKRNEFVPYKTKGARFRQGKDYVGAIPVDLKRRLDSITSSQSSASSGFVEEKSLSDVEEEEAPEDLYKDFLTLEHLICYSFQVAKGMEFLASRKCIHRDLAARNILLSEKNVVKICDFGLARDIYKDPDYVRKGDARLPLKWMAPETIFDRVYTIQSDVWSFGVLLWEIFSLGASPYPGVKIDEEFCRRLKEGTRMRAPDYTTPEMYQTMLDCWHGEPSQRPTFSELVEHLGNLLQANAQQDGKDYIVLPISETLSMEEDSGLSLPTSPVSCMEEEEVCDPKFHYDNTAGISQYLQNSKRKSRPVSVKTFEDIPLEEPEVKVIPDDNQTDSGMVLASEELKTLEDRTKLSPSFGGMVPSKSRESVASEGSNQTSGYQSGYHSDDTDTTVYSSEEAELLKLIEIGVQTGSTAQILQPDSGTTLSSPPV
Epidermal growth factor receptor, sequence (P00533 whole entry): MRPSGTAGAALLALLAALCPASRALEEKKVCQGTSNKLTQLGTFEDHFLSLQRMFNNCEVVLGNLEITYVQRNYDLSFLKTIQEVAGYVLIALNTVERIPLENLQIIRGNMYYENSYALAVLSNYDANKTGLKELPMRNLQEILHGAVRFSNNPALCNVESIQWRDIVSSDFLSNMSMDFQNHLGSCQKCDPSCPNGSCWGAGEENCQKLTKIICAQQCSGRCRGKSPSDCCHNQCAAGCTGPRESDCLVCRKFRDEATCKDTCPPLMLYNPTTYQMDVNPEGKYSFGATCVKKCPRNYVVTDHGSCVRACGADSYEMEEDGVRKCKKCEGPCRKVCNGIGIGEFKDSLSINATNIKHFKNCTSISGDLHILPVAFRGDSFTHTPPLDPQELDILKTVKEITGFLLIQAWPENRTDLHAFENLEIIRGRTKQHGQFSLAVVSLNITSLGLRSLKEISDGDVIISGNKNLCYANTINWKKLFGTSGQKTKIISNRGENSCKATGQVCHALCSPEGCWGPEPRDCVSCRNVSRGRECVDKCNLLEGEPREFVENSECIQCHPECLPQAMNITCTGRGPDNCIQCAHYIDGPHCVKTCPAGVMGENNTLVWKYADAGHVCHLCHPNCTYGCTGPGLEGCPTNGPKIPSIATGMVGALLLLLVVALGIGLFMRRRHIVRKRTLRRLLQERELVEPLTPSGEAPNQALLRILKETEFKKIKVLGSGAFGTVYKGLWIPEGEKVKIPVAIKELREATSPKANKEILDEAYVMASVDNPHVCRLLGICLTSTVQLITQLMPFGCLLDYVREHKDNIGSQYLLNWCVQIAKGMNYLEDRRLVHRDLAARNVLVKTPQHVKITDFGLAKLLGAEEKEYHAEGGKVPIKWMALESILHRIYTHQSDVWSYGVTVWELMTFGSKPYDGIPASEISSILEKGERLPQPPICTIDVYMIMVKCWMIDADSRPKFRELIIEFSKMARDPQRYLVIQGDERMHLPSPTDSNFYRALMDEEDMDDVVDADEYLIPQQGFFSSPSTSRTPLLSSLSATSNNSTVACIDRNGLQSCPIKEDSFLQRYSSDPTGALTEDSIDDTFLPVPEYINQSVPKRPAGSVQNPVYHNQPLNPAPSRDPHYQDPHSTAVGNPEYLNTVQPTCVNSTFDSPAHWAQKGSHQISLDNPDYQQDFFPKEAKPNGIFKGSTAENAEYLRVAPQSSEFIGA

COc1ccc(N(C)c2ncnc3occ(C)c23)cc1
IC50 [1]: 15.5 nM | IC50 [2]: 9.3 nM | IC50 [3]: 12.3 nM | IC50 [4]: 5.1 nM | IC50 [5]: 80 nM | Ratio IC50 [6]: 2 | Ratio IC50 [7]: 7 | MSD [8]: 15 days | Activity [9]: Toxic | Activity [10]: Toxic | Activity [11]: 25 - 50% | Activity [12]: 25 - 50% | Activity [13]: 25 - 50% | T/C [14]: 47% | T/C [15]: 38% | T/C [16]: 71% | Activity [17]: inactive | Activity [18]: inactive | Activity [19]: Active | Activity [20]: Active | Activity [21]: Active | Activity [22]: Active | Activity [23]: Active | Activity [24]: Active | Activity [25]: Active | Activity [26]: Active | Activity [27]: Active | Activity [28]: Active | Activity [29]: Active | Activity [30]: Active | Activity [31]: Active | Activity [32]: Active | Activity [33]: Active | Activity [34]: Active | Activity [35]: Active | Activity [36]: Active | Activity [37]: Active | Activity [38]: Active | Activity [39]: Active | Activity [40]: Active | Activity [41]: Active | Activity [42]: Active
